Test results from patent publication US6630310B1, “Assay for binding between carbohydrate and glycolipid” (Biopolymer Engineering Pharmaceutical, Inc., priority 1996, dated 2003).

Tests used:
[1] = tested on: receptor for underivatized, aqueous soluble β(1-3)-glucan on human leukocyte membranes; assay: Competition of ^3H-PGG-Glucan binding to human leukocyte membranes (oil/sucrose binding assay)
Method: Aminated glucan was prepared by reductive amination of curdlan and provided by Dr. Rolph Seljelid (University of Tromsφ, Tromsφ, Norway).
At the end of the incubation, 100 μl aliquots of reaction mixture were layered on top of a double layer density gradient consisting of 100 μl dibutyl phthalate (lower layer) and 100 μl 8% sucrose in PBS (upper layer) in 400 μl centrifuge tubes (Brinkman). The tubes were spun at 15,000×g for 4-5 minutes and the tips containing the membrane pellets were removed, incubated in 300 μl SOLVABLE™ (New England Nuclear, Boston, Mass.) overnight at 50° C. to dissolve the pellet, and then radioactivity determined by liquid scintillation counting. […] Alternatively, membranes were centrifuged directly in their incubation tubes at 15,000×g for 4-5 minutes at 37° C., the pellet washed with HBSS, then pellets solubilized and radioactivity determined by liquid scintillation counting.

[2] = Competition of ^3H-PGG-Glucan binding to GalCer II
Method: Lactosyl ceramide or the sample to be measured was suspended in ethanol. Aliquots as specified were added in triplicate to the wells of a 96-well plate and air dried. The following components were premixed, then 100 μL was added to each well: saline (10 μL) or unlabelled, underivatized, aqueous soluble β(1-3)-glucan (10 μL of a 10 mg/ml stock), ^3H-underivatized, aqueous soluble β(1-3) glucan (10 μL of a 10 μg/ml stock), and HBSS (80 μL). Plates were incubated at 37° C. for 1.5 to 2 hours, then supernatants were removed from each well and discarded. Wells were rinsed with HBSS (200 μL) and SOLVABLE™ (100 μL) was added. The plate was incubated at 60° C. for 5 minutes, then supernatants were removed and counted.

[3] = Competition of ^3H-PGG-Glucan binding to lactosyl ceramide in 96-well plate assay (FIGS. 14, 15); parameters: species or system bovine; details: FIGS. 14 and 15
Excerpt: FIG. 14 is a graph of the comparison of underivatized, aqueous soluble β(1-3)-glucan and single helix competition of ^3H-underivatized, aqueous soluble β(1-3)-glucan binding in three assay formats. Underivatized, aqueous soluble β(1-3)-glucan or single helix glucan was used at designated concentrations to compete for ^3H-underivatized, aqueous soluble β(1-3)-glucan binding to lactosyl ceramide (LacCer) in a 96-well plate (triangles), or to lactosyl ceramide in reconstituted membranes (squares), or to human leukocyte membranes (circles). Open symbols represent underivatized, aqueous soluble β(1-3) glucan, and closed symbols represent single helix. Maximum competition was assigned at the highest concentration of underivatized, aqueous soluble β(1-3)-glucan used as competitor in each type of assay.
FIG. 15 is a graphic illustration of data showing that underivatized, aqueous soluble β(1-3) glucan and high molecular weight underivatized, aqueous soluble β(1-3) glucan (Network) compete more effectively for ^3H-underivatized, aqueous soluble β(1-3)-glucan binding to lactosyl ceramide in a 96-well plate assay than do single helix or laminarin. […]
Lactosyl ceramide or the sample to be measured was suspended in ethanol. […] The plate was incubated at 60° C. for 5 minutes, then supernatants were removed and counted.

NF-κB = assay: EMSA of NF-κB activation in BMC2.3 cells; type: cell-based, murine; details: 3 μg/ml, various times at 37° C. (FIG. 4)
Method: (§1) In order to assess the activation of signal transduction as exemplified by the modulation of one or more transcriptional regulatory factors by underivatized, aqueous soluble β(1-3)-glucan, BMC2.3 cells were incubated with 3 μg/ml underivatized, aqueous soluble β(1-3)-glucan for various periods of time at 37° C. Nuclear extracts were prepared and incubated with ^32P-labeled DNA oligonucleotides specific for NF-κB or NF-IL6. The protein-^32P DNA complexes were separated from unbound ^32P DNA by gel electrophoresis (electrophoretic mobility shift assay, EMSA).
(§2) BMC2.3 cells in DMEM plus 10% fetal calf serum were incubated with 3 μg/ml underivatized, aqueous soluble β(1-3)-glucan for various lengths of time. Nuclear extracts were prepared by the method of Dignam et al. (Nuc. Acid Res. 11:1475-1489 (1983)). Nuclear extracts were then incubated with ^32P-labeled DNA oligonucleotide for twenty minutes at room temperature. The sequence of the oligonucleotide used as the probe was […] (SEQ ID NO: 1). The reaction mixture was then separated on a 4% polyacrylamide gel and the results recorded autoradiographically.

NF-IL6 [4] = assay: EMSA of NF-IL6 activation in BMC2.3 cells; type: cell-based, murine; details: 3 μg/ml, various times at 37° C. (FIG. 5)
Method: as §1, §2

NF-IL6 [5] = assay: EMSA of NF-IL6 activation in human neutrophils; type: cell-based; details: 3 μg/ml, 60 minutes at 37° C., relative to control or dextran (FIG. 16B)
Method: Purified human neutrophils were incubated with or without underivatized, aqueous soluble β(1-3)-glucan (3 μg/ml) or dextran (3 μg/ml) for 60 minutes at 37° C. Nuclear extracts were prepared and protein/DNA complex formation assessed by electrophoretic mobility shift assay (EMSA). As shown in FIGS. 16A and 16B, underivatized, aqueous soluble β(1-3)-glucan increased the binding of nuclear extract proteins to an NF-kB or NF-IL6 specific 32P-labeled oligonucleotide probe relative to extracts from either control or dextran-treated neutrophils.
Human neutrophils (4.5×10^6 cells/ml; 10 ml total) purified as described above were incubated in RPMI+10% FCS (Sigma Chemical Co.) for 30 minutes at 37° C. Underivatized, aqueous soluble β(1-3)-glucan or dextran (both at 3 μg/ml) were then added and incubation continued an additional 60 minutes at 37° C. Nothing was added to control cells. At the end of the incubation, cells were washed in ice cold PBS+20 mM EDTA and nuclear extracts prepared and EMSAs performed as described above.

For “underivatized, aqueous soluble β(1-3)-glucan [PGG-Glucan]”, the “competition for ^3H-underivatized, aqueous soluble β(1-3)-glucan binding to HLM (in words)” value ([1]; FIG. 14) was “competes”, the “% Control Binding” value ([1]; addition at 0.1 mg/ml, ^3H-PGG-Glucan binding to human leukocyte membranes) was 22% and the “% Control Binding” value ([2]; ligand 0.01 mg hexose/mL) was 23.6%. For the same substance, the “% Control Binding” value ([2]; ligand 0.1 mg hexose/mL) was 3.0%, the “% Control Binding” value ([2]; ligand 1.0 mg hexose/mL) was 1.4% and the “competition for ^3H-underivatized, aqueous soluble β(1-3)-glucan binding to LacCer in the 96-well plate assay (in words)” value [3] was “competes”. The “NF-κB protein-^32P DNA complex formation (EMSA, in words)” value (NF-κB) was “time dependent increase in protein-DNA complexes”, the “NF-IL6 protein-^32P DNA complex formation (EMSA, in words)” value (NF-IL6 [4]) was “time dependent increase in protein-DNA complexes” and the “binding of nuclear extract proteins to NF-IL6 specific 32P-labeled probe (EMSA, in words)” value (NF-IL6 [5]) was “increased”.
